Assay results as given in EP4603105A1, “PHARMACEUTICAL COMPOSITION CONTAINING CYCLIC COMPOUND HAVING SELECTIVE KRAS INHIBITORY EFFECT AGAINST HRAS AND NRAS” (CHUGAI SEIYAKU KABUSHIKI KAISHA, priority 2022, dated 2024).

How the values were obtained:
HRAS wild-type protein = HRAS wild-type protein (Homo sapiens, UniProt P01112); assay: Binding to HRAS by surface plasmon resonance (SPR), KD and KD ratio to KRAS; conditions: ratio of KD value for HRAS wild-type protein to KD value for KRAS (SPR)
Summary of the method: (§1)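 Each cycle, GDP-bound biotin-Avi RAS was captured (~100–300 RU), compound concentrations were injected low to high for 75 s each at 100 µL/min, then the chip was regenerated. Buffer: HBS pH 7.4, 10 mM MgCl2, 10 µM GDP, 1 mM DTT, 4% DMSO; 30°C. KD from a 1:1 binding model.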

[1] = molecular target: GDP-bound NRAS wild-type protein (Homo sapiens, UniProt P01111); assay: Binding to NRAS by surface plasmon resonance (SPR), KD and KD ratio to KRAS; conditions: ratio of KD value for GDP-bound NRAS wild-type protein to KD value for KRAS (SPR)
Chain of GDP-bound NRAS wild-type protein (P01111 whole entry): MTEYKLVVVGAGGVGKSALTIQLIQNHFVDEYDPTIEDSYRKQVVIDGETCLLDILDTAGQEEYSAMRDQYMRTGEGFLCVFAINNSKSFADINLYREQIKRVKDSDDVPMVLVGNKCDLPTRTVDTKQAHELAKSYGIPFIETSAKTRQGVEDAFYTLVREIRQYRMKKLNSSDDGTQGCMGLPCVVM
Summary of the method: as §1

[2] = tested on: human lung cancer strain NCI-H441; format: cell-based
Summary of the method: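 Signal came from […] measured per well once the reagent was added. Beforehand, cells were cultured at 37°C and 5% carbon dioxide on a compound series serially diluted in dimethyl sulfoxide.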

Chain of HRAS wild-type protein (P01112 whole entry): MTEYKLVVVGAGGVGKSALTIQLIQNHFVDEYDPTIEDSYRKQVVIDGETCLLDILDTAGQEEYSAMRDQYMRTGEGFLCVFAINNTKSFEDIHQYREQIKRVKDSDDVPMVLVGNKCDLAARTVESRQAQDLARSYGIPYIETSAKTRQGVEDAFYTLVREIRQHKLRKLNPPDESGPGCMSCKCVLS

| SMILES | HRAS /KRAS (HRAS wild-type protein) | NRAS /KRAS [1] | IC50 [2] [nM] |
| --- | --- | --- | --- |
| CC[C@H](C)[C@@H]1NC(=O)[C@H](CC(C)C)N(C)C(=O)C[C@@H](C(=O)N(C)C)N(C)C(=O)[C@H](C2CCCC2)N(C)C(=O)C2(CC(C)(C)C2)NC(=O)CN(C)C(=O)[C@H](CCc2cc(F)c(C(F)(F)F)c(F)c2)NC(=O)CN(C)C(=O)[C@H](Cc2ccc(C(F)(F)F)cc2)N2CC/C=C\C[C@@H](C2=O)N(C)C(=O)CN(C)C1=O [PP1776] | A (a compound having 10 or more and less than 20 is denoted as A) | A (a compound having 10 or more and less than 20 is denoted as A) | 98.7 |
| CCC[C@H]1C(=O)N[C@@H]([C@@H](C)CC)C(=O)N(C)CC(=O)N(C)[C@H]2C/C=C\CCN(C2=O)[C@@H](Cc2ccc(C(F)(F)F)cc2)C(=O)N(C)CC(=O)N[C@@H](CCc2cc(F)c(C(F)(F)F)c(F)c2)C(=O)N(CC)CC(=O)NC2(CC(C)(C)C2)C(=O)N(C)[C@@H](C2CCCC2)C(=O)N(C)[C@H](C(=O)N(C)C)CC(=O)N1C [PP1777] | B (a compound having 3 or more and less than 10 is denoted as B) | A (a compound having 10 or more and less than 20 is denoted as A) | 79.3 |
| CCO[C@@H]1C[C@H]2C(=O)N(C)C3(CCC3)C(=O)N(C)[C@@H](C3CCCC3)C(=O)N(C)[C@H](C(=O)N(C)C)CC(=O)N(C)[C@@H](CC)C(=O)N[C@@H]([C@@H](C)CC)C(=O)N(C)CC(=O)N(C)[C@H]3C/C=C\CCN(C3=O)[C@@H](Cc3ccc(C(F)(F)F)cc3)C(=O)N(C)CC(=O)N[C@@H](CCc3cc(F)c(C(F)(F)F)c(F)c3)C(=O)N2C1 [PP1779] | B (a compound having 3 or more and less than 10 is denoted as B) | A (a compound having 10 or more and less than 20 is denoted as A) | 5.4 |
| CC[C@H](C)[C@@H]1NC(=O)[C@H](CC)N(C)C(=O)C[C@@H](C(=O)N(C)C)N(C)C(=O)[C@H](C2CCCC2)N(C)C(=O)C2(CCC2)N(C)C(=O)[C@@H]2CCCN2C(=O)[C@H](CCc2cc(F)c(C(F)(F)F)c(F)c2)NC(=O)CN(C)C(=O)[C@H](Cc2ccc(C(F)(F)F)cc2)N2CC/C=C\C[C@@H](C2=O)N(C)C(=O)CN(C)C1=O [PP1780] | A (a compound having 10 or more and less than 20 is denoted as A) | A (a compound having 10 or more and less than 20 is denoted as A) | 8.2 |
| CCO[C@@H]1C[C@H]2C(=O)N(C)C3(CCC3)C(=O)N(C)[C@@H](C3CCCC3)C(=O)N(C)[C@H](C(=O)N(C)C)CC(=O)N(C)[C@@H](CC)C(=O)N[C@@H]([C@@H](C)CC)C(=O)N(C)CC(=O)N(C)[C@H]3C/C=C\CCN(C3=O)[C@@H](Cc3ccc(C)cc3)C(=O)N(C)CC(=O)N[C@@H](CCc3cc(F)c(C(F)(F)F)c(F)c3)C(=O)N2C1 [PP1781] | B (a compound having 3 or more and less than 10 is denoted as B) | A (a compound having 10 or more and less than 20 is denoted as A) | 2.1 |
| CCO[C@@H]1C[C@H]2C(=O)N(C)C3(CCC3)C(=O)N(C)[C@@H](C3CCCC3)C(=O)N(C)[C@H](C(=O)N(C)C)CC(=O)N(C)[C@@H](C3CC3)C(=O)N[C@@H]([C@@H](C)CC)C(=O)N(C)CC(=O)N(C)[C@H]3C/C=C\CCN(C3=O)[C@@H](Cc3ccc(C)cc3)C(=O)N(C)CC(=O)N[C@@H](CCc3cc(F)c(C(F)(F)F)c(F)c3)C(=O)N2C1 [PP1783] | B (a compound having 3 or more and less than 10 is denoted as B) | A (a compound having 10 or more and less than 20 is denoted as A) | 3.5 |
| CC[C@H](C)[C@@H]1NC(=O)[C@H](C2CC2)N(C)C(=O)C[C@@H](C(=O)N(C)C)N(C)C(=O)[C@H](C2CCCC2)N(C)C(=O)C2(CCC2)N(C)C(=O)[C@@H]2CCCN2C(=O)[C@H](CCc2cc(F)c(C(F)(F)F)c(F)c2)NC(=O)CN(C)C(=O)[C@H](Cc2ccc(C)cc2)N2CC/C=C\C[C@@H](C2=O)N(C)C(=O)CN(C)C1=O [PP1784] | B (a compound having 3 or more and less than 10 is denoted as B) | A (a compound having 10 or more and less than 20 is denoted as A) | 7.8 |
| CCO[C@@H]1C[C@H]2C(=O)N(C)C3(CCC3)C(=O)N(C)[C@@H](C3CCCC3)C(=O)N(C)[C@H](C(=O)N(C)C)CC(=O)N(C)[C@@H](CC)C(=O)N[C@@H]([C@@H](C)CC)C(=O)N3CCC[C@H]3C(=O)N(C)[C@H]3C/C=C\CCN(C3=O)[C@@H](Cc3ccc(C)cc3)C(=O)N(C)CC(=O)N[C@@H](CCc3cc(F)c(C(F)(F)F)c(F)c3)C(=O)N2C1 [PP1785] | A (a compound having 10 or more and less than 20 is denoted as A) | A (a compound having 10 or more and less than 20 is denoted as A) | 6.9 |
| CC[C@H](C)[C@@H]1NC(=O)[C@H](CC)N(C)C(=O)C[C@@H](C(=O)N(C)C)N(C)C(=O)[C@H](C2CCCC2)N(C)C(=O)C2(CCC2)N(C)C(=O)[C@@H]2CCCN2C(=O)[C@H](CCc2cc(F)c(C(F)(F)F)c(F)c2)NC(=O)CN(C)C(=O)[C@H](Cc2ccc(C)cc2)N2CC/C=C\C[C@@H](C2=O)N(C)C(=O)[C@@H]2CCCN2C1=O [PP1786] | B (a compound having 3 or more and less than 10 is denoted as B) | A (a compound having 10 or more and less than 20 is denoted as A) | 11.4 |
| CC[C@H](C)[C@@H]1NC(=O)[C@H](CC)N(C)C(=O)C[C@@H](C(=O)N(C)C)N(C)C(=O)[C@H](C2CCCC2)N(C)C(=O)C2(CCC2)N(C)C(=O)[C@@H]2C[C@@H](C)CN2C(=O)[C@H](CCc2cc(F)c(C(F)(F)F)c(F)c2)NC(=O)CN(C)C(=O)[C@H](Cc2ccc(C)cc2)N2CC/C=C\C[C@@H](C2=O)N(C)C(=O)[C@@H]2CCCN2C1=O [PP1789] | A (a compound having 10 or more and less than 20 is denoted as A) | A (a compound having 10 or more and less than 20 is denoted as A) | 9.5 |
| CCO[C@@H]1C[C@H]2C(=O)N(C)C3(CCC3)C(=O)N(C)[C@@H](C3CCCC3)C(=O)N(C)[C@H](C(=O)N(C)C)CC(=O)N(C)[C@@H](CC(C)C)C(=O)N[C@@H]([C@@H](C)CC)C(=O)N(C)CC(=O)N(C)[C@H]3C/C=C\CCN(C3=O)[C@@H](Cc3ccc(C)cc3)C(=O)N(C)CC(=O)N[C@@H](CCc3cc(F)c(C(F)(F)F)c(F)c3)C(=O)N2C1 [PP1790] | B (a compound having 3 or more and less than 10 is denoted as B) | A (a compound having 10 or more and less than 20 is denoted as A) | 1.7 |
| CCC[C@H]1C(=O)N[C@@H]([C@@H](C)CC)C(=O)N(C)CC(=O)N(C)[C@H]2C/C=C\CCN(C2=O)[C@@H](Cc2ccc(C)cc2)C(=O)N(C)CC(=O)N[C@@H](CCc2cc(F)c(C(F)(F)F)c(F)c2)C(=O)N2C[C@H](OCC)C[C@H]2C(=O)N(C)C2(CCC2)C(=O)N(C)[C@@H](C2CCCC2)C(=O)N(C)[C@H](C(=O)N(C)C)CC(=O)N1C [PP1793] | B (a compound having 3 or more and less than 10 is denoted as B) | A (a compound having 10 or more and less than 20 is denoted as A) | 2.4 |
| CCO[C@@H]1C[C@H]2C(=O)N(C)C3(CCC3)C(=O)N(C)[C@@H](C3CCCC3)C(=O)N(C)[C@H](C(=O)N(C)C)CC(=O)N(C)[C@@H](CC3CC3)C(=O)N[C@@H]([C@@H](C)CC)C(=O)N3CCC[C@H]3C(=O)N(C)[C@H]3C/C=C\CCN(C3=O)[C@@H](Cc3ccc(C)cc3)C(=O)N(C)CC(=O)N[C@@H](CCc3cc(F)c(C(F)(F)F)c(F)c3)C(=O)N2C1 [PP1797] | A (a compound having 10 or more and less than 20 is denoted as A) | A (a compound having 10 or more and less than 20 is denoted as A) | 5.1 |
| CC[C@H](C)[C@@H]1NC(=O)[C@H](CC2CC2)N(C)C(=O)C[C@@H](C(=O)N(C)C)N(C)C(=O)[C@H](C2CCCC2)N(C)C(=O)C2(CCC2)N(C)C(=O)[C@@H]2CCCN2C(=O)[C@H](CCc2cc(F)c(C(F)(F)F)c(F)c2)NC(=O)CN(C)C(=O)[C@H](Cc2ccc(C)cc2)N2CC/C=C\C[C@@H](C2=O)N(C)C(=O)[C@@H]2CCCN2C1=O [PP1798] | B (a compound having 3 or more and less than 10 is denoted as B) | A (a compound having 10 or more and less than 20 is denoted as A) | 7.8 |
| CCC[C@H]1C(=O)N[C@@H]([C@@H](C)CC)C(=O)N(C)CC(=O)N(C)[C@H]2C/C=C\CCN(C2=O)[C@@H](Cc2ccc(C)cc2)C(=O)N(C)CC(=O)N[C@@H](CCc2cc(F)c(C(F)(F)F)c(F)c2)C(=O)N2C[C@H](C)C[C@H]2C(=O)N(C)C2(CCC2)C(=O)N(C)[C@@H](C2CCCC2)C(=O)N(C)[C@H](C(=O)N(C)C)CC(=O)N1C [PP1799] | B (a compound having 3 or more and less than 10 is denoted as B) | B (a compound having 3 or more and less than 10 is denoted as B) | 7.6 |
